Experimental data reported in patent US10287255B2, “Compounds as histone deacetylase 6 inhibitors and pharmaceutical compositions comprising the same” (CHONG KUN DANG PHARMACEUTICAL CORP., priority 2014, dated 2019).

Assays:
[1] = target: T1, human recombinant HDAC1 (Homo sapiens, UniProt Q13547); experiment: HDAC1 enzyme activity inhibition assay (in vitro, fluorimetric); format: biochemical; settings: human recombinant HDAC1, fluorimetric kit, 30° C. 60 minutes
T1 construct: purchased Enzo Life Science BML-SE456
T1 sequence (Q13547 whole entry): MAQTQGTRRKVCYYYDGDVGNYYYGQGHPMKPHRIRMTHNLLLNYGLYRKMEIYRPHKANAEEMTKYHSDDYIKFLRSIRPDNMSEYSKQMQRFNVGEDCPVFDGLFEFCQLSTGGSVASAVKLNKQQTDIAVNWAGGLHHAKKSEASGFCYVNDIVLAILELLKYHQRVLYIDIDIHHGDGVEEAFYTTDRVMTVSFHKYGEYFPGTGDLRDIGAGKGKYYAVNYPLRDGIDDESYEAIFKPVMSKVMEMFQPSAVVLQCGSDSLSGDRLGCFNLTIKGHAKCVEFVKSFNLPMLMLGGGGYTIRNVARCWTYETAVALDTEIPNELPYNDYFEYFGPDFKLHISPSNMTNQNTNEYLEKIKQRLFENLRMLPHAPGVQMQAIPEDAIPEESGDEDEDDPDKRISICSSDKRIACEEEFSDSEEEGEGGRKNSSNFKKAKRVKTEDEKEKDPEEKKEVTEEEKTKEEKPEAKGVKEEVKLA
Summary of the method: (§1)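 IC50 values derive from fluorescence (Ex 360, Em 460) after developer treatment (30 min) of reactions of recombinant human HDAC1 or HDAC6 with 10 μM Fluor de Lys-SIRT1 substrate (60 min, 30 °C). Compounds were serially diluted 5-fold; 0.3 μg enzyme was used for HDAC1, with HDAC6 tested identically.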

[2] = target: T2, human recombinant HDAC6 (Homo sapiens, UniProt Q9UBN7); experiment: HDAC6 enzyme activity inhibition assay (in vitro, fluorimetric); format: biochemical; settings: for HDAC6 selectivity (fold): HDAC6 selectivity over HDAC1; for IC50: human recombinant HDAC6, fluorimetric kit, same protocol as HDAC1
T2 construct: purchased Calbiochem 382180
T2 sequence (Q9UBN7 1-1215): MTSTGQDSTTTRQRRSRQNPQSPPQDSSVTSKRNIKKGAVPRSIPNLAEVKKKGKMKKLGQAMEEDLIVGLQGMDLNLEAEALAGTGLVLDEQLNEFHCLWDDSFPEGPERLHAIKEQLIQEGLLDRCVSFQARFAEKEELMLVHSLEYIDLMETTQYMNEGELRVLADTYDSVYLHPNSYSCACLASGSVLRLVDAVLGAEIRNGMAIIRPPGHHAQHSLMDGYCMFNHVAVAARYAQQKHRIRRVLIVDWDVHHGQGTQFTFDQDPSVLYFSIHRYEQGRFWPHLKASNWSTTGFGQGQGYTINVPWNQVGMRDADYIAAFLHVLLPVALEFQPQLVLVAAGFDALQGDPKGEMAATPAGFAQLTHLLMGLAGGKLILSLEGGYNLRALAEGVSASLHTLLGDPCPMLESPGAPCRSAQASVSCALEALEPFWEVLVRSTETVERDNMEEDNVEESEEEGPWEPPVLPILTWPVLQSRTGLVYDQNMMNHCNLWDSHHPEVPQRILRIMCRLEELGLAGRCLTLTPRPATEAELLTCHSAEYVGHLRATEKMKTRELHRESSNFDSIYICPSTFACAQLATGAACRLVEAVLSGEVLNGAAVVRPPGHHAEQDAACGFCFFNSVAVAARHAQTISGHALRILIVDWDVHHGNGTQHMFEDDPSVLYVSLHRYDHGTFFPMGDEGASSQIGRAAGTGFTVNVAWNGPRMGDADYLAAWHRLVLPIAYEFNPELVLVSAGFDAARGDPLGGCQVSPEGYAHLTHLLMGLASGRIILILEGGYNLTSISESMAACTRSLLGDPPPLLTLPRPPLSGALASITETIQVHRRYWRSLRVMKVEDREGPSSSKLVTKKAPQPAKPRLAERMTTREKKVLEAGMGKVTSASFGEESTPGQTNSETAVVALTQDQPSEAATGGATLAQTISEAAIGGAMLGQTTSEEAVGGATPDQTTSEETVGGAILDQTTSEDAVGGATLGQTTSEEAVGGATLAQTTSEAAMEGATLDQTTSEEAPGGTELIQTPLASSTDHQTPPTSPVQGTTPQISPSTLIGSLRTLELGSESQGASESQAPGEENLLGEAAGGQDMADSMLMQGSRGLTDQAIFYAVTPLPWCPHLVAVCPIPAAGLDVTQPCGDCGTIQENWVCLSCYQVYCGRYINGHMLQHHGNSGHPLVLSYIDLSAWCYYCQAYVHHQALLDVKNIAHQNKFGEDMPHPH
Summary of the method: as §1

Row | Structure (SMILES) | IC50 [1] | HDAC6 selectivity (fold) [2] | IC50 [2]
1 | C[C@@H]1CN(C(=O)c2cccc(-c3ccoc3)c2)C[C@H](C)N1Cc1ccc(C(=O)NO)cc1 [Compound 258, 4-(((2S,6R)-4-(3-(furan-3-yl)benzoyl)-2,6-dimethylpiperazin-1-yl)methyl)-N-hydroxybenzamide] | 1700 nM | 7 fold | 258 nM
2 | C[C@@H]1CN(C(=O)c2cccc(C3=CCOCC3)c2)C[C@H](C)N1Cc1ccc(C(=O)NO)cc1 [Compound 259, 4-(((2S,6R)-4-(3-(3,6-dihydro-2H-pyran-4-yl)benzoyl)-2,6-dimethylpiperazin-1-yl)methyl)-N-hydroxybenzamide] | 2500 nM | 6 fold | 400 nM
3 | C[C@@H]1CN(C(=O)c2cccc(-c3ccncc3)c2)C[C@H](C)N1Cc1ccc(C(=O)NO)cc1 [Compound 260, 4-(((2S,6R)-2,6-dimethyl-4-(3-(pyridin-4-yl)benzoyl)piperazin-1-yl)methyl)-N-hydroxybenzamide] | 1700 nM | 3 fold | 529 nM
4 | C[C@@H]1CN(C(=O)c2cccc(-c3cccnc3)c2)C[C@H](C)N1Cc1ccc(C(=O)NO)cc1 [Compound 261, 4-(((2S,6R)-2,6-dimethyl-4-(3-(pyridin-3-yl)benzoyl)piperazin-1-yl)methyl)-N-hydroxybenzamide] | 2000 nM | 3 fold | 577 nM
5 | C[C@@H]1CN(C(=O)c2cccc(-c3ccnc(F)c3)c2)C[C@H](C)N1Cc1ccc(C(=O)NO)cc1 [Compound 262, 4-(((2S,6R)-4-(3-(2-fluoropyridin-4-yl)benzoyl)-2,6-dimethylpiperazin-1-yl)methyl)-N-hydroxybenzamide] | 2400 nM | 3 fold | 727 nM
6 | C[C@@H]1CN(C(=O)c2cccc(C3=CCC(C)(C)CC3)c2)C[C@H](C)N1Cc1ccc(C(=O)NO)cc1 [Compound 263, 4-(((2S,6R)-4-(4′,4′-dimethyl-2′,3′,4′,5′-tetrahydro-[1,1′-biphenyl]-3-carbonyl)-2,6-dimethylpiperazin-1-yl)methyl)-N-hydroxybenzamide] | 6800 nM | <7 fold | > 1000 nM
7 | C[C@@H]1CN(Cc2ccc(C(=O)NO)cc2)C[C@H](C)N1Cc1ccc2ccccc2c1 [Compound 265, 4-(((3R,5S)-3,5-dimethyl-4-(naphthalen-2-ylmethyl)piperazin-1-yl)methyl)-N-hydroxybenzamide] | 6200 nM | 84 fold | 74 nM
8 | C[C@@H]1CN(Cc2ccc(C(=O)NO)cc2)C[C@H](C)N1Cc1ccncc1 [Compound 266, 4-(((3R,5S)-3,5-dimethyl-4-(pyridin-4-ylmethyl)piperazin-1-yl)methyl)-N-hydroxybenzamide] | 19100 nM | 68 fold | 282 nM
9 | C[C@@H]1CN(Cc2ccc(C(=O)NO)cc2)C[C@H](C)N1Cc1cccc(Cl)c1C(F)(F)F [Compound 267, 4-(((3R,5S)-4-(3-chloro-2-(trifluoromethyl)benzyl)-3,5-dimethylpiperazin-1-yl)methyl)-N-hydroxybenzamide] | 14200 nM | 75 fold | 188 nM
10 | C[C@@H]1CN(Cc2ccc3ccccc3c2)C[C@H](C)N1Cc1ccc(C(=O)NO)cc1 [Compound 268, 4-(((2S,6R)-2,6-dimethyl-4-(naphthalen-2-ylmethyl)piperazin-1-yl)methyl)-N-hydroxybenzamide] | 2800 nM | 2 fold | 1270 nM
11 | CC(C)CCN1[C@H](C)CN(Cc2ccc(C(=O)NO)cc2)C[C@@H]1C [Compound 270, N-hydroxy-4-(((3R,5S)-4-isopentyl-3,5-dimethylpiperazin-1-yl)methyl)benzamide] | > 10000 nM | >5 fold | 2220 nM
12 | CC(C)CCN1C[C@@H](C)N(Cc2ccc(C(=O)NO)cc2)[C@@H](C)C1 [Compound 271, N-hydroxy-4-(((2S,6R)-4-isopentyl-2,6-dimethylpiperazin-1-yl)methyl)benzamide] | 12500 nM | <13 fold | > 1000 nM
13 | CC(C)=CCN1[C@H](C)CN(Cc2ccc(C(=O)NO)cc2)C[C@@H]1C [Compound 272, 4-(((3R,5S)-3,5-dimethyl-4-(3-methylbut-2-en-1-yl)piperazin-1-yl)methyl)-N-hydroxybenzamide] | 12200 nM | 67 fold | 182 nM
14 | CC(C)N1C[C@@H](C)N(Cc2ccc(C(=O)NO)cc2)[C@@H](C)C1 [Compound 273, N-hydroxy-4-(((2S,6R)-4-isopropyl-2,6-dimethylpiperazin-1-yl)methyl)benzamide] | 13700 nM | 31 fold | 441 nM
15 | CCCCN1C[C@@H](C)N(Cc2ccc(C(=O)NO)cc2)[C@@H](C)C1 [Compound 274, 4-(((2S,6R)-4-butyl-2,6-dimethylpiperazin-1-yl)methyl)-N-hydroxybenzamide] | 13500 nM | 36 fold | 378 nM
16 | CCCCN1[C@H](C)CN(Cc2ccc(C(=O)NO)cc2)C[C@@H]1C [Compound 275, 4-(((3R,5S)-4-butyl-3,5-dimethylpiperazin-1-yl)methyl)-N-hydroxybenzamide] | > 10000 nM | >21 fold | 475 nM
17 | C[C@@H]1CN(C(=O)c2ccccc2-c2ccco2)C[C@H](C)N1Cc1ccc(C(=O)NO)cc1 [Compound 276, 4-(((2S,6R)-4-(2-(furan-2-yl)benzoyl)-2,6-dimethylpiperazin-1-yl)methyl)-N-hydroxybenzamide] | 12300 nM | 36 fold | 337 nM
18 | C[C@@H]1CN(C(=O)c2ccccc2-c2ccoc2)C[C@H](C)N1Cc1ccc(C(=O)NO)cc1 [Compound 277, 4-(((2S,6R)-4-(2-(furan-3-yl)benzoyl)-2,6-dimethylpiperazin-1-yl)methyl)-N-hydroxybenzamide] | 10400 nM | 23 fold | 455 nM
19 | C[C@@H]1CN(C(=O)c2ccccc2C2=CCOCC2)C[C@H](C)N1Cc1ccc(C(=O)NO)cc1 [Compound 278, 4-(((2S,6R)-4-(2-(3,6-dihydro-2H-pyran-4-yl)benzoyl)-2,6-dimethylpiperazin-1-yl)methyl)-N-hydroxybenzamide] | 14400 nM | 16 fold | 911 nM
20 | C[C@@H]1CN(C(=O)c2ccccc2-c2cccnc2)C[C@H](C)N1Cc1ccc(C(=O)NO)cc1 [Compound 279, 4-(((2S,6R)-2,6-dimethyl-4-(2-(pyridin-3-yl)benzoyl)piperazin-1-yl)methyl)-N-hydroxybenzamide] | > 10000 nM | >13 fold | 769 nM
21 | C[C@@H]1CN(C(=O)c2ccccc2C2=CCC(C)(C)CC2)C[C@H](C)N1Cc1ccc(C(=O)NO)cc1 [Compound 280, 4-(((2S,6R)-4-(4′,4′-dimethyl-2′,3′,4′,5′-tetrahydro-[1,1′-biphenyl]-2-carbonyl)-2,6-dimethylpiperazin-1-yl)methyl)-N-hydroxybenzamide] | 17700 nM | 46 fold | 388 nM
22 | C[C@@H]1CN(Cc2ccc(C(=O)NO)cc2)C[C@H](C)N1C(=O)c1ccccc1-c1ccco1 [Compound 283, 4-(((3R,5S)-4-(2-(furan-2-yl)benzoyl)-3,5-dimethylpiperazin-1-yl)methyl)-N-hydroxybenzamide] | 3500 nM | 154 fold | 23 nM
23 | C[C@@H]1CN(Cc2ccc(C(=O)NO)cc2)C[C@H](C)N1C(=O)c1ccccc1-c1ccoc1 [Compound 284, 4-(((3R,5S)-4-(2-(furan-3-yl)benzoyl)-3,5-dimethylpiperazin-1-yl)methyl)-N-hydroxybenzamide] | 5700 nM | 84 fold | 68 nM
